{"source": "patent US20240325362A1", "about": "“NOVEL THERAPEUTIC METHOD FOR ENHANCING MITOCHONDRIAL FUNCTION, TREATING MITOCHONDRIAL DISEASES THEREBY, AND COMPOUNDS USED THEREIN” (STANDIGM INC., priority 2020, published 2024)", "origin": "cited, not measured here", "system": "muscle mitochondrial function", "details": "clinical study, as an NAD+ precursor", "data": [{"smiles": "Cc1cnc(C(=O)O)c[n+]1[O-]", "note": "[acipimox]", "values": [{"measurement": "effect on muscle mitochondrial function", "result": "beneficial effect on muscle mitochondrial function"}]}]}
